Measured values from patent US11820766B2, “Monoacylglycerol lipase modulators” (Janssen Pharmaceutica NV, priority 2018, dated 2023).

Molecular target: T1, human MGL from HeLa cells (Homo sapiens, UniProt Q99685)
T1 construct: combining endogenously expressed MGL from HeLa cells with test compounds; endogenous in cells; host or cells: HeLa cells / cell homogenates
T1 sequence (Q99685 1-303): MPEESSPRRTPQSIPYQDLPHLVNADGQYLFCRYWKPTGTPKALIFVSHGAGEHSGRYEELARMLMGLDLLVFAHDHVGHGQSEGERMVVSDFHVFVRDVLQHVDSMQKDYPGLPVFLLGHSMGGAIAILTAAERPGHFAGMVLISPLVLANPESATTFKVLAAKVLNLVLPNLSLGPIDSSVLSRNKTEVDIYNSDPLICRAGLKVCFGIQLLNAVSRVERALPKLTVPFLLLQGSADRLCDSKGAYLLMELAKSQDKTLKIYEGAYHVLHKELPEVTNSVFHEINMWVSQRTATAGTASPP
Test: In vitro MGL activity assay: [glycerol-1,3-3H]-oleyl glycerol cleavage by MGL from HeLa cells
Format: biochemical
Details: 300 nM [Glycerol-1,3-3H]-oleyl glycerol, one hour incubation
Excerpt: MGL is the predominant hydrolase in HeLa cells/cell homogenates.

SMILES	IC50
COc1cc(C(=O)N2CCc3c(nn(C)c3-c3cc(F)c(F)c(F)c3)[C@@H]2C)c2ccccc2n1 [Example 240, (S)-(2,7-Dimethyl-3-(3,4,5-trifluorophenyl)-2,4,5,7-tetrahydro-6H-pyrazolo[3,4-c]pyridin-6-yl)(2-methoxyquinolin-4-yl)methanone]	0.00069 µM
Cc1cc(C(=O)N2CCc3c(nn(C)c3-c3cc(F)c(F)c(F)c3)[C@@H]2C)c2cccc(F)c2n1 [Example 241, (S)-(2,7-Dimethyl-3-(3,4,5-trifluorophenyl)-2,4,5,7-tetrahydro-6H-pyrazolo[3,4-c]pyridin-6-yl)(8-fluoro-2-methylquinolin-4-yl)methanone]	0.00656 µM
C[C@H]1c2nn(C)c(-c3cc(F)c(F)c(F)c3)c2CCN1C(=O)c1ccc2nccnc2c1 [Example 242, (S)-(2,7-Dimethyl-3-(3,4,5-trifluorophenyl)-2,4,5,7-tetrahydro-6H-pyrazolo[3,4-c]pyridin-6-yl)(quinoxalin-6-yl)methanone]	0.0223 µM
Cc1cnc2cc(C(=O)N3CCc4c(nn(C)c4-c4cc(F)c(F)c(F)c4)[C@@H]3C)ccc2n1 [Example 243, (S)-(2,7-Dimethyl-3-(3,4,5-trifluorophenyl)-2,4,5,7-tetrahydro-6H-pyrazolo[3,4-c]pyridin-6-yl)(2-methylquinoxalin-6-yl)methanone]	0.025 µM
C[C@H]1c2nn(C)c(-c3cc(F)c(F)c(F)c3)c2CCN1C(=O)c1ccc2ncccc2n1 [Example 244, (S)-(2,7-Dimethyl-3-(3,4,5-trifluorophenyl)-2,4,5,7-tetrahydro-6H-pyrazolo[3,4-c]pyridin-6-yl)(1,5-naphthyridin-2-yl)methanone]	0.0141 µM
C[C@H]1c2nn(C)c(-c3cc(F)c(F)c(F)c3)c2CCN1C(=O)c1cnc2cccnc2c1 [Example 245, (S)-(2,7-Dimethyl-3-(3,4,5-trifluorophenyl)-2,4,5,7-tetrahydro-6H-pyrazolo[3,4-c]pyridin-6-yl)(1,5-naphthyridin-3-yl)methanone]	0.122 µM
C[C@H]1c2nn(C)c(-c3cc(F)c(F)c(F)c3)c2CCN1C(=O)c1cncc2cccnc12 [Example 246, (S)-(2,7-Dimethyl-3-(3,4,5-trifluorophenyl)-2,4,5,7-tetrahydro-6H-pyrazolo[3,4-c]pyridin-6-yl)(1,6-naphthyridin-8-yl)methanone]	0.02 µM
C[C@H]1c2nn(C)c(-c3ccc(C(F)(F)F)o3)c2CCN1C(=O)c1ccc2nccnc2c1 [Example 247, (S)-(2,7-Dimethyl-3-(5-(trifluoromethyl)furan-2-yl)-2,4,5,7-tetrahydro-6H-pyrazolo[3,4-c]pyridin-6-yl)(quinoxalin-6-yl)methanone]	0.186 µM
C[C@H]1c2nn(C)c(-c3cncc(C(F)(F)F)c3)c2CCN1C(=O)c1ccc2nccnc2c1 [Example 248, (S)-(2,7-Dimethyl-3-(5-(trifluoromethyl)pyridin-3-yl)-2,4,5,7-tetrahydro-6H-pyrazolo[3,4-c]pyridin-6-yl)(quinoxalin-6-yl)methanone]	2.23 µM
CC1c2nn(C)c(-c3cccc4c3ccn4C)c2CCN1C(=O)c1ccc2ncccc2c1 (centres unmarked) [Example 249, (2,7-Dimethyl-3-(1-methyl-1H-indol-4-yl)-2,4,5,7-tetrahydro-6H-pyrazolo[3,4-c]pyridin-6-yl)(quinolin-6-yl)methanone]	1.53 µM
CC1c2nn(C)c(-c3cc4ccccc4n3C)c2CCN1C(=O)c1ccc2ncccc2c1 (centres unmarked) [Example 250, (2,7-Dimethyl-3-(1-methyl-1H-indol-2-yl)-2,4,5,7-tetrahydro-6H-pyrazolo[3,4-c]pyridin-6-yl)(quinolin-6-yl)methanone]	0.206 µM
CC1c2nn(C)c(-c3cn(C)c4ccccc34)c2CCN1C(=O)c1ccc2ncccc2c1 (centres unmarked) [Example 251, (2,7-Dimethyl-3-(1-methyl-1H-indol-3-yl)-2,4,5,7-tetrahydro-6H-pyrazolo[3,4-c]pyridin-6-yl)(quinolin-6-yl)methanone]	1.89 µM
CC1c2nn(C)c(-c3ccc4c(ccn4C)c3)c2CCN1C(=O)c1ccc2ncccc2c1 (centres unmarked) [Example 252, (2,7-Dimethyl-3-(1-methyl-1H-indol-5-yl)-2,4,5,7-tetrahydro-6H-pyrazolo[3,4-c]pyridin-6-yl)(quinolin-6-yl)methanone]	0.631 µM
CC1c2nn(C)c(-c3cccc4ccn(C)c34)c2CCN1C(=O)c1ccc2ncccc2c1 (centres unmarked) [Example 253, (2,7-Dimethyl-3-(1-methyl-1H-indol-7-yl)-2,4,5,7-tetrahydro-6H-pyrazolo[3,4-c]pyridin-6-yl)(quinolin-6-yl)methanone]	1.61 µM
COc1cccc(C(=O)N2CCc3c(nn(-c4ccccc4)c3-c3ccccc3)[C@@H]2C)c1 [Example 257, (3-Methoxyphenyl)-[(7S)-7-methyl-2,3-diphenyl-5,7-dihydro-4H-pyrazolo[3,4-c]pyridin-6-yl]methanone]	0.101 µM
COc1ccc(C(=O)N2CCc3c(nn(C)c3-c3cc(C)cc(F)c3)[C@@H]2C)cc1 [Example 258, [(7S)-3-(3-Fluoro-5-methyl-phenyl)-2,7-dimethyl-5,7-dihydro-4H-pyrazolo[3,4-c]pyridin-6-yl]-(4-methoxyphenyl)methanone]	0.0685 µM

Other lines, results leading:

IC50	SMILES
0.0126 µM	COc1ccccc1C(=O)N1CCc2c(nn(C)c2-c2cc(F)c(F)c(F)c2)[C@@H]1C [Example 259, [(7S)-2,7-Dimethyl-3-(3,4,5-trifluorophenyl)-5,7-dihydro-4H-pyrazolo[3,4-c]pyridin-6-yl]-(2-methoxyphenyl)methanone]
0.00725 µM	COc1cccc(C(=O)N2CCc3c(nn(C)c3-c3cc(F)c(F)c(F)c3)[C@@H]2C)c1 [Example 260, [(7S)-2,7-Dimethyl-3-(3,4,5-trifluorophenyl)-5,7-dihydro-4H-pyrazolo[3,4-c]pyridin-6-yl]-(3-methoxyphenyl)methanone]
0.0294 µM	COc1ccc(C(=O)N2CCc3c(nn(C)c3-c3cc(F)c(F)c(F)c3)[C@@H]2C)cc1 [Example 261, [(7S)-2,7-Dimethyl-3-(3,4,5-trifluorophenyl)-5,7-dihydro-4H-pyrazolo[3,4-c]pyridin-6-yl]-(4-methoxyphenyl)methanone]
0.0528 µM	C[C@H]1c2nn(C)c(-c3cc(F)c(F)c(F)c3)c2CCN1C(=O)c1cccc(OC(F)(F)F)c1 [Example 262, [(7S)-2,7-Dimethyl-3-(3,4,5-trifluorophenyl)-5,7-dihydro-4H-pyrazolo[3,4-c]pyridin-6-yl]-[3-(trifluoromethoxy)phenyl]methanone]
0.0283 µM	C[C@H]1c2nn(C)c(-c3cc(F)c(F)c(F)c3)c2CCN1C(=O)c1ccccc1OC(F)(F)F [Example 263, [(7S)-2,7-Dimethyl-3-(3,4,5-trifluorophenyl)-5,7-dihydro-4H-pyrazolo[3,4-c]pyridin-6-yl]-[2-(trifluoromethoxy)phenyl]methanone]
0.213 µM	C[C@H]1c2nn(C)c(-c3cc(F)c(F)c(F)c3)c2CCN1C(=O)c1ccc(OC(F)F)cc1 [Example 264, [4-(Difluoromethoxy)phenyl]-[(7S)-2,7-dimethyl-3-(3,4,5-trifluorophenyl)-5,7-dihydro-4H-pyrazolo[3,4-c]pyridin-6-yl]methanone]
0.035 µM	COc1ccc(C(=O)N2CCc3c(nn(C)c3-c3cc(F)c(F)c(F)c3)[C@@H]2C)c(F)c1 [Example 265, [(7S)-2,7-Dimethyl-3-(3,4,5-trifluorophenyl)-5,7-dihydro-4H-pyrazolo[3,4-c]pyridin-6-yl]-(2-fluoro-4-methoxy-phenyl)methanone]
